US12583851B2, “Heteroaryl-substituted pyrazine derivatives as pesticides” (Elanco Animal Health GmbH, priority 2019, dated 2026)

Legend:
Format in all cases: in vivo
[1] = tested on: Rhipicephalus (Boophilus) microplus larvae (strain Parkhurst, resistant against synthetic pyrethroids); experiment: Rhipicephalus (Boophilus) microplus in-vitro contact test, larval cattle tick; details: after 48 hours, read-out: efficacy (larvae dead or moribund); for pest or weed control at 1 µg/cm2, 100 g/ha: 1 μg/cm^2 (=100 g/ha); for pest or weed control at 5 µg/cm2, 500 g/ha: 5 μg/cm^2 (=500 g/ha)
In short: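 Pyrethroid-resistant larvae (strain Parkhurst), 20–50 per tube, exposed by contact to a dried acetone film of compound (5 μg/cm² at 900 ppm) for 48 h at 27 °C and 85% humidity. Percent dead or moribund larvae scored from negative geotactic behaviour.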

[2] = tested on: adult engorged female ticks (Rhipicephalus microplus); experiment: Rhipicephalus (Boophilus) microplus injection test; details: 168 h, 4 μg/animal, egg deposition after 7 days, read-out: efficacy (infertile eggs)
In short: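 Compound in DMSO (10 mg per 0.5 mL, then diluted with DMSO to test concentration); 1 μL injected into the abdomen of each of five engorged females, then held in a climate chamber. Fertile egg deposition checked at 7 days; efficacy 100% = all eggs infertile, 0% = all fertile.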

[3] = tested on: adult cat fleas (Ctenocephalides felis); experiment: Ctenocephalides felis in-vitro contact test, adult cat flea; details: after 48 hours, read-out: efficacy (fleas dead or moribund); for pest or weed control at 1 µg/cm2, 100 g/ha: 1 μg/cm^2 (=100 g/ha)
In short: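 Acetone solution coated onto glass tube walls; 900 ppm gives 5 μg/cm². Once dry, 5–10 adult fleas per tube held at room temperature for 48 h. Efficacy (%) is the share of fleas dead or moribund, i.e. unable to climb away on a 45–50° C heating plate.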

[4] = tested on: adult unfed cat fleas (Ctenocephalides felis); experiment: Ctenocephalides felis oral test; details: 48 h, 100 ppm in citrated cattle blood, after 2 days
In short: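 About 20 adult unfed cat fleas fed through parafilm on citrated cattle blood containing compound (from a DMSO concentrate). Blood held at 37° C, fleas at room temperature. Mortality in % scored after 2 days.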

[5] = tested on: adult brown dog ticks (Rhipicephalus sanguineus); experiment: Rhipicephalus sanguineus in-vitro contact test, adult brown dog ticks; details: 48 h, 5 μg/cm^2 (=500 g/ha), after 48 hours, read-out: efficacy (ticks dead or moribund)
In short: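 Acetone solution coated on glass tube inner walls (900 ppm, giving 5 μg/cm^2); after drying, 5–10 adult ticks added and kept 48 h at room temperature. Efficacy scored as percent dead or moribund, i.e., ticks unable to climb away on a 45–50 °C heating plate within 5 min.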

[6] = tested on: adult mosquitoes Aedes aegypti strain MONHEIM; experiment: Aedes aegypti test (AEDSAE surface treatment & contact assay); details: 24 hours after contact, read-out: mortality (efficacy)
Method: Aedes aegypti Test (AEDSAE Surface Treatment & Contact Assay)
(§1) Solvent: Aceton+2000 ppm rapeseed oil methyl ester (RME)
(§2) In order to produce a sufficient, active ingredient containing solution it is necessary to solve the test compound in the solvent-mix (acetone at 2 mg/ml/RME 2000 ppm). This solution is pipetted onto a glazed tile and after evaporation of the acetone, adult mosquitoes of the species Aedes aegypti strain MONHEIM are placed onto the dried surface. The exposure time is 30 minutes.
(§3) Mortality in percent (%) is determined 24 hours after contact of the insects to the treated surface. 100% mortality means that all tested insects are dead, whereas 0% means that no insect died.

[7] = tested on: adult mosquitoes Anopheles funestus strain FUMOZ-R; experiment: Anopheles funestus test (ANPHFU surface treatment & contact assay); details: surface concentration 20 mg/m^2, 30 minutes exposure, 24 hours after contact, read-out: mortality (efficacy)
Method: Anopheles funestus Test (ANPHFU Surface Treatment & Contact Assay)
as §1
as §2, with “Anopheles funestus” for “Aedes aegypti”, “FUMOZ-R (Hunt et al., Med. Vet. Entomol. 2005 Sep. 19(3): 271-275)” for “MONHEIM”
as §3

[8] = tested on: adult flies Musca domestica strain WHO-N; experiment: Musca domestica test (MUSCDO surface treatment & contact assay); details: surface concentration 4 mg/m^2, 30 minutes exposure, 24 hours after contact, read-out: mortality (efficacy)
Method: Musca domestica Test (MUSCDO Surface Treatment & Contact Assay)
as §1
as §2, with “flies” for “mosquitoes”, “Musca domestica” for “Aedes aegypti”, “WHO-N” for “MONHEIM”
as §3

[9] = tested on: adult Blattella germanica strain PAULINIA; experiment: Blattella germanica test (BLTTGE surface treatment & contact assay); details: surface concentration 20 mg/m^2, 30 minutes exposure, 24 hours after contact, read-out: mortality (efficacy)
Method: Blattella germanica Test (BLTTGE Surface Treatment & Contact Assay)
as §1
as §2, with “animals” for “mosquitoes”, “Blattella germanica” for “Aedes aegypti”, “PAULINIA” for “MONHEIM”
as §3

[10] = tested on: larvae of the banded cucumber beetle (Diabrotica balteata); experiment: Diabrotica balteata spray test; details: 168 h, after 7 days, read-out: efficacy (seedling growth); for pest or weed control at 32 µg/disc, 100 g/ha: 100 g/ha (=32 μg/well)
In short: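 Efficacy was read 7 days after infesting each unit with 10–20 banded cucumber beetle larvae, as % of seedlings growing like untreated, uninfested controls. Before infestation, wheat seeds germinated 1 day on agar (5 per well) were sprayed with the active ingredient. The active was formulated in acetone/DMF and diluted in water containing emulsifier.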

[11] = tested on: green peach aphid (Myzus persicae); experiment: Myzus persicae oral test; details: 120 h, 4 ppm, after 5 days
Method: Solvent: 100 parts by weight acetone
To produce a suitable preparation of active compound, 1 part by weight of active compound is mixed with the stated amount of solvent, and the concentrate is diluted with water to the desired concentration.
50 μL compound solution is filled in microtiter plates and 150 μL IPL41 insect medium (33%+15% sugar) is added to obtain a total volume of 200 μL per well. Afterwards the plates are sealed with parafilm through which a mixed population of the green peach aphid (Myzus persicae) can suck on the compound preparation.
After 5 days mortality in % is determined. 100% means all aphids have been killed and 0% means none of the aphids have been killed.

[12] = tested on: fall armyworm larvae (Spodoptera frugiperda); experiment: Spodoptera frugiperda spray test; details: 168 h, maize leaf sections, after 7 days
In short: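 Percent larval kill read at day 7, from 0% (no caterpillars dead) to 100% (all dead). Larvae were placed on dried Zea mays leaf discs previously sprayed with test preparations made from an acetone/DMF solution diluted in 1000 ppm emulsifier-containing water.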

| SMILES | pest or weed control at 1 µg/cm2, 100 g/ha [1] | pest or weed control at 5 µg/cm2, 500 g/ha [1] | pest or weed control at 0.004 mg [2] | pest or weed control at 1 µg/cm2, 100 g/ha [3] | mortality at 100 ppm [4] | pest or weed control at 5 µg/cm2, 500 g/ha [5] | mortality at 4 mg/m2 ([6]; surface concentration 4 mg/m^2, 30 minutes exposure) | mortality at 20 mg/m2 ([6]; surface concentration 20 mg/m^2, 30 minutes exposure) | mortality at 20 mg/m2 [7] | mortality at 4 mg/m2 [8] | mortality at 20 mg/m2 [9] | pest or weed control at 5 µg/cm2, 500 g/ha ([3]; 5 μg/cm^2 (=500 g/ha)) | pest or weed control at 32 µg/disc, 100 g/ha [10] | mortality at 4 ppm [11] | pest or weed control at 6.4 µg/disc, 20 g/ha ([10]; 20 g/ha (=6.4 μg/well)) | mortality at 100 g/ha [12] |
| --- | --- | --- | --- | --- | --- | --- | --- | --- | --- | --- | --- | --- | --- | --- | --- | --- |
| CC(NC(=O)c1cc(F)cc(C(F)(F)F)c1)c1nccnc1-c1ncccn1 (racemic) [Example I-7, (rac)-3-Fluoro-N-(1-(3-(pyrimidin-2-yl)pyrazin-2-yl)ethyl)-5-(trifluoromethyl)benzamide] | 100% | 100% | 100% | 90% | 100% | 100% | 80 to 100% | 80 to 100% | 80 to 100% | 80 to 100% | 80 to 100% |  |  |  |  |  |
| CC(NC(=O)c1cc(C(F)(F)F)cc(C(F)(F)F)c1)c1nccnc1-c1ccc(C(=O)N2CCOCC2)cn1 (racemic) [Example I-34, (rac)-N-[1-{3-[5-(morpholine-4-carbonyl)pyridin-2-yl]pyrazin-2-yl}ethyl]-3,5-bis(trifluoromethyl)benzamide] | 100% | 100% |  | 80% |  | 80% |  |  |  |  |  | 90% | 80% | 100% |  |  |
| CC(NC(=O)c1cc(C(F)(F)F)cc(C(F)(F)F)c1)c1nccnc1-c1ccc(Cl)cn1 (stereo not shown) [Example I-20] | 100% | 100% | 80% |  |  |  |  |  |  |  |  |  | 100% | 90% | 80% | 100% |
